Tests used:
Plasmodium falciparum = assay: Antimalarial activity against chloroquine-sensitive Plasmodium falciparum FCR3; assay type: functional, organism-based
FM3A [1] = assay: Cytotoxicity against mouse FM3A cell line; assay type: functional, cell-based
FM3A [2] = assay: Selectivity ratio of EC50s against Plasmodium falciparum FCR3 to mice (Mus musculus) FM3A cells; assay type: functional

Row | Structure (SMILES) | EC50 (Plasmodium falciparum) | EC50 (FM3A [1]) | Ratio EC50 (FM3A [2])
1 | CCCCCCCCCCCCCCCC[n+]1ccc(C(=O)NCCCCCCNC(=O)c2cc[n+](CCCCCCCCCCCCCCCC)cc2)cc1 | 3500 nM | 2200 nM | 
2 | CCN(CC)CCCC(C)Nc1ccnc2cc(Cl)ccc12 (centres undefined) [CHLOROQUINE] |  |  | 1800
3 | C=C[C@H]1CN2CC[C@H]1C[C@H]2[C@H](O)c1ccnc2ccc(OC)cc12 [QUININE] |  |  | 910

Second part, led by results:

Row | EC50 (Plasmodium falciparum) | Structure (SMILES) | EC50 (FM3A [1]) | Ratio EC50 (FM3A [2])
4 | 10 nM | CCCCCCCC[n+]1ccc(C(=O)NCCCCCCNC(=O)c2cc[n+](CCCCCCCC)cc2)cc1.[Br-].[Br-] | 5800 nM | 580
5 | 40 nM | CCCCCCCCCC[n+]1ccc(C(=O)NCCCCCCNC(=O)c2cc[n+](CCCCCCCCCC)cc2)cc1.[Br-].[Br-] | 450 nM | 11
6 | 52 nM | CCCCCC[n+]1ccc(C(=O)NCCCCCCNC(=O)c2cc[n+](CCCCCC)cc2)cc1.[Br-].[Br-] | > 17300 nM | >333
7 | 130 nM | CCCCCCCCCCCC[n+]1ccc(C(=O)NCCCCCCNC(=O)c2cc[n+](CCCCCCCCCCCC)cc2)cc1.[Br-].[Br-] | 420 nM | 3
8 | 1100 nM | CCCCCCCCCCCCCC[n+]1ccc(C(=O)NCCCCCCNC(=O)c2cc[n+](CCCCCCCCCCCCCC)cc2)cc1.[Br-].[Br-] | 2800 nM | 3

Reference: ChEMBL document CHEMBL1147011, “Antimalarial effect of bis-pyridinium salts, N,N'-hexamethylenebis(4-carbamoyl-1-alkylpyridinium bromide)” (Bioorg Med Chem Lett, 2006)
